27 molecules from patent publication US20110034457A1, “Pyridothiophene Compounds” (VERNALIS (CAMBRIDGE) LIMITED., priority 2003, published 2011) can be followed below.

This test has as its target T1, human full-length HSP90 (Homo sapiens, UniProt P08238).
T1 construct: E. coli expressed human full-length HSP90 protein, purified >95%; made in house; host or cells: E. coli
Kind of test: Fluorescence polarization assay (competitive displacement of probe RBT0045864-FAM from HSP90). Format: binding. The source says:
Fluorescence polarization {also known as fluorescence anisotropy} measures the rotation of a fluorescing species in solution, where the larger molecule the more polarized the fluorescence emission. When the fluorophore is excited with polarized light, the emitted light is also polarized. The molecular size is proportional to the polarization of the fluorescence emission.
The fluoroscein-labelled probe—RBT0045864-FAM—
binds to HSP90 {full-length human, full-length yeast or N-terminal domain HSP90} and the anisotropy {rotation of the probe:protein complex} is measured.
Test compound is added to the assay plate, left to equilibrate and the anisotropy measured again. Any change in anisotropy is due to competitive binding of compound to HSP90, thereby releasing probe.
Stored at room temperature. • 3) BSA (bovine serum albumen) 10 mg/ml (New England Biolabs # B9001S) • 4) 20 mM probe in 100% DMSO stock concentration. Stored in the dark at RT. Working concentration is 200 nM diluted in AR water and stored at 4° C.
• 1) Add 100 μl 1× buffer to wells 11A and 12A (=FP BLNK) • 2) Prepare assay mix—all reagents are kept on ice with a lid on the bucket as the probe is light-sensitive.
• 3) Aliquot 100 μl assay mix to all other wells • 4) Seal plate and leave in dark at room temp for 20 minutes to equilibrate
This gives 2.5 mM {50×} stock cpd—assuming cpds 20 mM. • 4) Repeat for wells A2 to A10. Control in columns 11 and 12. • 5) Transfer 5 μl from row A to row B—not column 12. Mix well. • 6) Transfer 5 μl from row B to row C. […] Add 2 μl of 100 mM standard cpd to wells B12-H12 {is positive control} • 13) The Z′ factor is calculated from zero controls and positive wells.

[1] abbreviates: fluorescence polarisation, E. coli expressed human full-length HSP90 200 nM, probe 80 nM, read-out: Hsp90 FP IC50.

Like-named read-outs stand apart in the source and are kept apart here.

In general, IC50 refers to the point on the concentration scale where inhibition reaches its midpoint.

T1 sequence (P08238 whole entry): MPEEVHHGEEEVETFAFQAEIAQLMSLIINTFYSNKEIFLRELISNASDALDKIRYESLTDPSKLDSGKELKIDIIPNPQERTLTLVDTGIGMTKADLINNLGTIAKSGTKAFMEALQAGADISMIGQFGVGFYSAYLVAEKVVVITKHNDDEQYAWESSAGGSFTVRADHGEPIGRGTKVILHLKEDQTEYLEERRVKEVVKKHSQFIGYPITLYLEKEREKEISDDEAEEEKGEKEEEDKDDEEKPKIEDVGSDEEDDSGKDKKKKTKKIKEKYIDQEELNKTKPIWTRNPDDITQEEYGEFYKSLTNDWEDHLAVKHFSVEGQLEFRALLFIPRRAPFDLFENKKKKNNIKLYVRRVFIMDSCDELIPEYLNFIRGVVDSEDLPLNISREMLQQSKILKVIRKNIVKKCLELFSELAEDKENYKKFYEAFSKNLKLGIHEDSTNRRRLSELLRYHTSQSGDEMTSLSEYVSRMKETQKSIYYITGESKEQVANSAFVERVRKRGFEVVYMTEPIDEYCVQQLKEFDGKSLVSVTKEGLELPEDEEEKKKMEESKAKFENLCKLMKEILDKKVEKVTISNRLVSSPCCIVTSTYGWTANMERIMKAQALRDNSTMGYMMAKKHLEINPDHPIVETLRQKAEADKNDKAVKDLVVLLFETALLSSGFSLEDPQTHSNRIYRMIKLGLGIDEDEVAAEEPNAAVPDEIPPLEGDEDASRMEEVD

For `N#Cc1c(N)nc2sc(C(=O)NCC(N)=O)c(N)c2c1-c1ccccc1` [Example 22], the IC50 under setting [1] is under 10 µM.

Regarding `N#Cc1c(N)nc2sc(C(=O)NCCN)c(N)c2c1-c1ccccc1` [Example 26], the half-inhibitory concentration (IC50) under setting [1] was over 10 µM.

Consider `N#Cc1c(N)nc2sc(C(=O)NCCO)c(N)c2c1-c1ccccc1` [Example 24], for which the IC50 under setting [1] is over 10 µM.

On to `CC(C)c1ccc(-c2c(C#N)c(N)nc3sc(C(=O)Nc4nccs4)c(N)c23)cc1` [Example 5], for which, under setting [1], the IC50 was over 10 µM.

`CC(C)c1ccc(-c2c(C#N)c(N)nc3sc(C(N)=O)c(N)c23)cc1` [Example 6]: under setting [1], the IC50 is under 10 µM.

For the molecule `N#Cc1c(N)nc2sc(C(=O)NCCN3CCOCC3)c(N)c2c1-c1ccccc1` [Example 21], the IC50 under setting [1] was over 10 µM.

In the case of `CCN(CC)C(=O)c1sc2nc(N)c(C#N)c(-c3ccccc3)c2c1N` [Example 13], the IC50 under setting [1] was over 10 µM.

Take `CCOc1ccc(-c2c(C#N)c(N)nc3sc(C(N)=O)c(N)c23)cc1` [Example 8]: the IC50 is under 10 µM.

As to `N#Cc1c(N)nc2sc(C(N)=O)c(N)c2c1-c1ccc(Cl)cc1` [Example 7], the IC50 under setting [1] is under 10 µM.

As to `COc1cccc(NC(=O)c2sc3nc(N)c(C#N)c(-c4ccc(C(C)C)cc4)c3c2N)c1` [Example 3], the IC50 under setting [1] is over 10 µM.

For `CN(C)CCNC(=O)c1sc2nc(N)c(C#N)c(-c3ccccc3)c2c1N` [Example 23], under setting [1], the IC50 is over 10 µM.

For the molecule `COc1ccc(-c2c(C#N)c(N)nc3sc(C(N)=O)c(N)c23)cc1OC` [Example 10], under setting [1], the IC50 is over 10 µM.

As to `Cc1ccccc1NC(=O)c1sc2nc(N)c(C#N)c(-c3ccc(C(C)C)cc3)c2c1N` [Example 2], under setting [1], the IC50 was over 10 µM.

For the molecule `CN(C)CCCNC(=O)c1sc2nc(N)c(C#N)c(-c3ccccc3)c2c1N` [Example 17], the IC50 under setting [1] was over 10 µM.

With `N#Cc1c(N)nc2sc(C(=O)NCCCN3CCOCC3)c(N)c2c1-c1ccccc1` [Example 19], the IC50 under setting [1] was over 10 µM.

Turning to `CCNC(=O)c1sc2nc(N)c(C#N)c(-c3ccccc3)c2c1N` [Example 1, 3,6-Diamino-5-cyano-4-phenyl-thieno[2,3-b]pyridine-2-carboxylic acid ethylamide], the IC50 under setting [1] is under 10 µM.

`CN1CCN(C(=O)c2sc3nc(N)c(C#N)c(-c4ccccc4)c3c2N)CC1` [Example 16]: the IC50 under setting [1] is over 10 µM.

For the molecule `N#Cc1c(N)nc2sc(C(N)=O)c(N)c2c1-c1ccccc1` [Example 25], the IC50 under setting [1] is over 10 µM.

Regarding `CC(C)NC(=O)c1sc2nc(N)c(C#N)c(-c3ccccc3)c2c1N` [Example 11], under setting [1], the IC50 was over 10 µM.

In the case of `CN1CCN(CCCNC(=O)c2sc3nc(N)c(C#N)c(-c4ccccc4)c3c2N)CC1` [Example 18], the IC50 under setting [1] is over 10 µM.

For the molecule `N#Cc1c(N)nc2sc(C(=O)N3CCOCC3)c(N)c2c1-c1ccccc1` [Example 20], the IC50 under setting [1] was over 10 µM.

As for `COC(=O)CNC(=O)c1sc2nc(N)c(C#N)c(-c3ccccc3)c2c1N` [Example 15], under setting [1], the IC50 is under 10 µM.

On to `N#Cc1c(N)nc2sc(C(=O)NCc3ccccc3)c(N)c2c1-c1ccccc1` [Example 12], for which the IC50 under setting [1] is over 10 µM.

As for `N#Cc1c(N)nc2sc(C(N)=O)c(N)c2c1-c1ccc(Br)cc1` [Example 4], the IC50 under setting [1] is over 10 µM.

Consider `CNC(=O)c1sc2nc(N)c(C#N)c(-c3ccccc3)c2c1N` [Example 14], for which, under setting [1], the IC50 is under 10 µM.

Consider `COC(=O)c1sc2nc(N)c(C#N)c(-c3ccc(OC(C)C)cc3)c2c1N` [Example 27], for which the IC50 under setting [1] was over 10 µM.

On to `N#Cc1c(N)nc2sc(C(=O)Nc3ccccc3)c(N)c2c1-c1ccc(Br)cc1` [Example 9], for which the IC50 under setting [1] was over 10 µM.
